Source: publication PMC12259270, “Sensory neuron–expressed FGF13 controls nociceptive signaling in diabetic neuropathy models” (The Journal of Clinical Investigation, 2025)
Residues, ends and D or L forms follow the SMILES beside them. *: point of attachment. Cbz = O=C(OCc1ccccc1)*; NHPh = c1ccc(N*)cc1; OtBu = CC(C)(C)O*

System: Na+ currents in hIPSC-derived sensory neurons (RealDRG)
Experiment: Whole-cell voltage clamp, hIPSC-derived sensory neurons (RealDRG) with Nav1.7 blocker ProTx-II
Assay type: cell-based, human
Settings: for Activation / Peak Density / Steady-State inactivation / Tau (τ) / Long-term inactivation, 2nd Pulse / Long-term inactivation, 3rd Pulse / Long-term inactivation, 4th Pulse: RealDRG
Experimental: Next, we conducted whole-cell patch-clamp electrophysiological recordings in hIPSC-derived sensory neurons under three conditions: unstimulated and treated with 0.07% ethanol (capsaicin vehicle), treated with capsaicin (100 nM, 10 minutes), and treated with capsaicin plus SB-366791 (10 μM), a selective TRPV1 inhibitor. Each group was exposed to either vehicle (0.01% DMSO) or PW164 (50 μM), with all recordings performed in the presence of the Nav1.8 blocker A-803467 (300 nM) ([41]). The experimental groups are color coded in Figure 2A. Capsaicin caused potentiation of INa (Figure 2A) and induced hyperpolarizing shifts in the V1/2 of activation (Figure 2B) and SSI (Figure 2C). […] Next, we investigated whether silencing FGF13 could replicate PW164’s effects and prevent additional activity of the compound. hIPSC-derived sensory neurons were transfected with a previously validated pAAV-shFGF13-GFP construct ([42]) (Supplemental Figure 8). […] Neither PW164 nor FGF13 silencing affected Na+ currents in neurons transfected with pAAV-shCTRL-GFP or pAAV-shFGF13-GFP, whether unstimulated or treated with capsaicin in the presence of ProTx II (Supplemental Figure 9 and Supplemental Table 6). Thus, PW164 selectively modulated FGF13-dependent Na^+ current sensitization via TRPV1, with FGF13 silencing mimicking and validating PW164’s effect. […]
Whole-cell patch clamp electrophysiology
HEK293-Nav1.7 cells, HEK293 stably expressing human Nav1.6 (HEK-Nav1.6), HEK293 stably expressing human Nav1.5 (HEK-Nav1.5), human hIPSC-derived sensory neurons (RealDRGTM from Anatomic Incorporated 1020F1-1M) and donor-derived DRG neurons were plated at low density on glass coverslips and processed for whole-cell patch clamp electrophysiology in voltage-clamp and/or current clamp mode. Whole-cell patch electrophysiological experiments were conducted following previously published studies (26). Current densities were obtained by dividing INa amplitude by membrane capacitance. Current –voltage relationships were generated by plotting current density as a function of the […]. Conductance (G Na) was calculated by the […]
where INa is the current amplitude at voltage Vm, and Erev is the Na+ reversal potential.
Activation curves were derived by plotting normalized GNa as a function of test potential and fitted using […]
Where GNa,Max is the maximum conductance, Va is the membrane potential of half-maximal activation, Em is the membrane voltage and k is the slope factor. For steady -state inactivation, normalized current amplitude (INa/INa,Max) at the test potential was plotted as a function of prepulse potential (Vm) and fitted using the […]
Where Vh is the potential of half-maximal inactivation, E m is the membrane voltage, and k is the slope factor.
Transient INa inactivation decay was estimated with the standard exponential equation. Inactivation time constant (tau, τ) was fitted with the following equation: […]
where I(t) is the amplitude of the current at time t and Iss is the steady-state current during a single voltage-step.
The goodness of fitting was determined by correlation coefficient (R), and the cutoff of R was set at 0.85. To observe effects on long-term inactivation (LTI), a four-step protocol was employed during which cells were subjected to four 0 mV, 20 ms depolarization pulses separated by −90 mV, 40 ms recovery intervals. To control for various cell sizes, the current densities were calculated by dividing INa peak current amplitude/membrane capacitance (Cm). To represent the fraction of channels entering into LTI, the peak INa observed during depolarization cycles 2-4 was normalized to the peak INa observed during depolarization cycle 1 (INa/INa,Cycle 1) and plotted as a function of the depolarization cycle.
The cumulative (frequency-dependent) use-dependency was determined by applying 20 pulses with a depolarization to −10 mV (50 ms duration) and 50 ms recovery intervals with a train of 20 pulses at 10 Hz from a holding potential at -70 mV. […]

[1] = + Nav1.7 blocker ProTx-II, Cap+ - PW164
[2] = + Nav1.7 blocker ProTx-II, Cap+ PW164
[3] = + Nav1.7 blocker ProTx-II, Naïve + PW164
[4] = + Nav1.7 blocker ProTx-II, Naïve - PW164
[5] = + Nav1.7 blocker ProTx-II, Naive + ZL192
[6] = + Nav1.7 blocker ProTx-II, Naïve + ZL192

In the case of `COC(=O)[C@@H](NC(=O)[C@H](CCC(=O)OC(C)(C)C)NC(=O)[C@H](CC(C)C)NC(=O)[C@@H]1CCCN1C(=O)OCc1ccccc1)C(C)C` [PW164] (Cbz-PLE(OtBu)V-OMe), the “effect on capsaicin-potentiated Na+ currents with ProTx-II” value (ProTx-II 10 nM, Suppl Fig 7) is reported as “does not have any effect”, the Activation [1] is reported as −29.15 ± 0.86 mV and the “Peak Density” value [1] is reported as −80.16 ± 8.05 pA/pF. The Steady-State inactivation [1] was −61.95 ± 1.29 mV, the “Tau (τ)” value [1] was 0.98 ± 0.08 ms and the “Long-term inactivation, 2nd Pulse” value [2] was −118.43 ± 3.81 % maximal Na+ current. For the same compound, the “Long-term inactivation, 3rd Pulse” value [2] was −120.42 ± 4.69 % maximal Na+ current, the “Long-term inactivation, 2nd Pulse” value [3] was −105.72 ± 2.72 % maximal Na+ current and the “Long-term inactivation, 3rd Pulse” value [3] was −110.76 ± 2.72 % maximal Na+ current. The “Long-term inactivation, 4th Pulse” value [3] was −113.94 ± 3.54 % maximal Na+ current, the Activation [4] was −29.68 ± 1.17 mV and the “Peak Density” value [4] was −76.99 ± 6.01 pA/pF. For the same compound, the Steady-State inactivation [4] was −61.23 ± 1.29 mV and the “Tau (τ)” value [4] was 0.87 ± 0.04 ms.
With `CC(=O)N[C@@H](Cc1ccccc1)C(=O)N[C@@H](CC(C)C)C(=O)N1CCC[C@H]1C(=O)N[C@@H](CCCCN)C(=O)Nc1ccccc1` [ZL192] (Ac-FLPK-NHPh) the “UseDependency (Suppl. Figure S14D)” value (Control cells, pulse 1) was 1, the “UseDependency (Suppl. Figure S14D)” value (Control cells, pulse 3) was 0.9097 and the “UseDependency (Suppl. Figure S14D)” value (Control cells, pulse 5) was 0.8784. For the same compound, the “UseDependency (Suppl. Figure S14D)” value (Control cells, pulse 10) was 0.8714, the “UseDependency (Suppl. Figure S14D)” value (Control cells, pulse 15) was 0.8646 and the “UseDependency (Suppl. Figure S14D)” value (Control cells, pulse 20) was 0.8556. The “UseDependency (Suppl. Figure S14D)” value (Naive cells, pulse 1) was 1, the “UseDependency (Suppl. Figure S14D)” value (Naive cells, pulse 3) was 0.9097 and the “UseDependency (Suppl. Figure S14D)” value (Naive cells, pulse 5) was 0.8778. The “UseDependency (Suppl. Figure S14D)” value (Naive cells, pulse 10) was 0.8143, the “UseDependency (Suppl. Figure S14D)” value (Naive cells, pulse 15) was 0.7732 and the “UseDependency (Suppl. Figure S14D)” value (Naive cells, pulse 20) was 0.7489. For the same compound, the Activation [5] was −27.64 ± 0.93 mV, the “Peak Density” value [5] was −96.53 ± 4.85 pA/pF and the Steady-State inactivation [5] was −59.34 ± 1.61 mV. The “Tau (τ)” value [5] was 1.33 ± 0.06 ms, the “Long-term inactivation, 2nd Pulse” value [6] was −99.26 ± 0.91 % maximal Na+ current and the “Long-term inactivation, 3rd Pulse” value [6] was −100.38 ± 1.08 % maximal Na+ current. For the same compound, the “Long-term inactivation, 4th Pulse” value [6] was −100.45 ± 1.3 % maximal Na+ current, the Activation (+ ProTx-II, Control + ZL192) was −30.93 ± 0.89 mV and the “Long-term inactivation, 2nd Pulse” value (+ ProTx-II, Control + ZL192) was −98.61 ± 0.74 % maximal Na+ current. For the same compound, the “Long-term inactivation, 3rd Pulse” value (+ ProTx-II, Control + ZL192) was −99.17 ± 0.84 % maximal Na+ current, the “Long-term inactivation, 4th Pulse” value (+ ProTx-II, Control + ZL192) was −98.95 ± 1.01 % maximal Na+ current and the “Peak Density” value (+ ProTx-II, Control + ZL192) was −101.87 ± 5.35 pA/pF. For the same compound, the Steady-State inactivation (+ ProTx-II, Control + ZL192) was −53.15 ± 0.91 mV, the “Tau (τ)” value (+ ProTx-II, Control + ZL192) was 1.0 ± 0.04 ms and the Activation (+ ProTx-II, Sh + ZL192) was −28.74 ± 1.12 mV. The “Peak Density” value (+ ProTx-II, Sh + ZL192) was −99.91 ± 8.28 pA/pF, the Steady-State inactivation (+ ProTx-II, Sh + ZL192) was −62.97 ± 1.64 mV and the “Tau (τ)” value (+ ProTx-II, Sh + ZL192) was 1.27 ± 0.08 ms. The “Long-term inactivation, 2nd Pulse” value (+ ProTx-II, Sh + Zl192) was −96.65 ± 1.81 % maximal Na+ current, the “Long-term inactivation, 3rd Pulse” value (+ ProTx-II, Sh + Zl192) was −97.25 ± 2.18 % maximal Na+ current and the “Long-term inactivation, 4th Pulse” value (+ ProTx-II, Sh + Zl192) was −99.23 ± 3.28 % maximal Na+ current. The “UseDependency (Suppl. Figure S14D)” value (ShFGF13 cells, pulse 1) was 1, the “UseDependency (Suppl. Figure S14D)” value (ShFGF13 cells, pulse 3) was 0.9541 and the “UseDependency (Suppl. Figure S14D)” value (ShFGF13 cells, pulse 5) was 0.9361. The “UseDependency (Suppl. Figure S14D)” value (ShFGF13 cells, pulse 10) was 0.8879, the “UseDependency (Suppl. Figure S14D)” value (ShFGF13 cells, pulse 15) was 0.8614 and the “UseDependency (Suppl. Figure S14D)” value (ShFGF13 cells, pulse 20) was 0.8526. The “activity on Na+ currents with ProTx-II” value (ZL192 50 μM, ProTx-II 10 nM, Suppl Fig 14) was “no activity”.
